Key:
[1] = system: PSMA expressing cancers; assay: Treatment response monitored by PSA values in blood, patient cohorts; type: in vivo, patients; conditions: comparative example
[2] = Toxicity monitored by blood sampling and clinical side effects, patient cohorts; type: in vivo, patients; conditions: patient cohort; for change in thrombocyte or white blood cell count: during therapy; for dysfunction of salivary glands: reported side effect; for tolerability of the treatment: lab tests every 4 weeks, clinical side effects every 8 weeks
Description: Toxicity was monitored by blood sampling.
Hematologic response was evaluated every 4 weeks per lab tests and clinical side effects were monitored every 8 weeks.

[3] = system: metastatic castration-resistant prostate cancer (mCRPC); assay: Treatment of individual mCRPC patients A and B: PSA level and PSMA PET/CT restaging; type: in vivo
Description: Clinical Course of Patient A presented with diffuse red marrow infiltration of mCRPC (this physical condition was considered a contraindication for treatment with β-emitters). Patient A was treated with 3 cycles of 9-10 MBq (100 kBq per kilogram of body weight) of Ac-225-PSMA-617 at bimonthly intervals.
(§1) Patient B was initially treated with Lu-177-PSMA-617 (7.4 GBq per cycle), which was offered as salvage therapy. The initial PSA level was 294 ng/ml. […] Therapy was changed to Ac-225-PSMA-617, and the patient received 3 cycles of 6.4 MBq (100 kBq per kilogram of body weight) at bimonthly intervals.

[4] = system: PSMA expressing cancers; assay: Treatment response monitored by PSA values in blood, patient cohorts; type: in vivo, patients; conditions: for patients in PSA response / patients in PSA response (percentage): at week-24
Description: 20 Patients were treated 3 times with activities of 100 kBq/kg body weight of Ac-225-PSMA-617 in two month intervals.
Treatment response was monitored by PSA values in blood and with PET/CT (positron emission tomography-computed tomography) with Ga-68-PSMA-HBED-CC (also called Gallium-68-PSMA11) before therapy and after the third therapy.
Experiments have been conducted to compare the efficiency of the Ac-225-radiopharmaceuticals as used in the present invention, such as Ac-225-PSMA-617, with that of non-Ac-225-radiopharmaceuticals comprising the same targeting compound, but chelated e.g. with Lu-177, such as a radionuclide Lu-177-PSMA-617.

[5] = Laboratory test follow-up and side effects of individual mCRPC patients A and B; type: in vivo
Excerpt: After each cycle, the blood cell count and alkaline phosphatase level were checked every 2 week. The platelet level never dropped below 100/n1 (grade 1 according to the Common Terminology Criteria for Adverse Events, version 4.0), the total white blood cell count never dropped below 2.5/n1 (grade 1), and the hemoglobin level never dropped below 9.5 g/dl (grade 2) (FIG. 13A). […] A concordant decline in PSA level and alkaline phosphatase level (FIG. 13B) further underlined the excellent treatment response.
as §1

[6] = 30 patients, eight weeks after the first treatment cycle
[7] = patient A, checked every 2 week after each cycle
[8] = patient A, after additional 6 MBq consolidation therapy
[9] = eight weeks after the first treatment cycle, 20 patients, 100 kBq/kg body weight
[10] = sixteen weeks after the first treatment cycle, 20 patients, 100 kBq/kg body weight
[11] = twenty-four weeks after the first treatment cycle, 20 patients, 100 kBq/kg body weight

Compound: O=C([O-])CN1CCN(CC(=O)[O-])CCN(CC(=O)NCC2CCC(C(=O)N[C@@H](Cc3ccc4ccccc4c3)C(=O)NCCCC[C@H](NC(=O)N[C@@H](CCC(=O)O)C(=O)O)C(=O)O)CC2)CCN(CC(=O)[O-])CC1.[177Lu+3] (stereo partly shown) [Lu-177-PSMA-617, reference compound]
- patients presenting a decrease in PSA [1, 6]: 21/30
- patients with decrease in PSA >50% [1, 6]: 16 patients
- patients presenting a decrease in PSA ([1]; 30 patients, twenty-four weeks after the first treatment cycle, some patients dropped out): 9/30
- patients with decrease in PSA >50% among those with PSA decrease ([1]; twenty-four weeks after the first treatment cycle): all of them
- change in thrombocyte or white blood cell count [2]: no significant change
- dysfunction of salivary glands [2]: Mild moderate dysfunction of salivary glands
- tolerability of the treatment [2]: well tolerated
- lesions on PSMA PET/CT, restaging ([3]; patient B, after 2 cycles of Lu-177-PSMA-617): tumor progression
- PSA level ([3]; patient B, after cycle 2, 7.4 GBq per cycle, initial PSA level 294 ng/ml): 419 ng/mL
- patients in PSA response [4]: 9/30
- patients in PSA response (percentage) [4]: 30%
- response rate in comparison to Ac-225-PSMA-617 group ([4]; comparison of treated groups): lower response rate

Compound: O=C(O)CCC(NC(=O)NC(CCCCNC(=O)C(Cc1cccc2ccccc12)NC(=O)C1CCC(CNC(=O)CN2CCN(CC(=O)O)CCN(CC(=O)O)CCN(CC(=O)O)CC2)CC1)C(=O)O)C(=O)O (stereo not shown) [Ac-225-PSMA-617, metal not drawn]
- clinically reported side effect ([5]; patient A): Moderate but enduring dysfunction of salivary glands
- hemoglobin level, CTCAE grade ([5]; patient A): grade 2
- platelet level, grade according to Common Terminology Criteria for Adverse Events, version 4.0 ([5]; patient A): grade 1
- total white blood cell count, CTCAE grade ([5]; patient A): grade 1
- hematologic toxicity (blood cell count) ([5]; patient A, FIG. 13A): moderate hematologic toxicity
- hemoglobin level (lowest) [5, 7]: ≥ 9.5 g/dL
- platelet level (lowest) [5, 7]: ≥ 100 /n1
- total white blood cell count (lowest) [5, 7]: ≥ 2.5 /n1
- reported side effect ([5]; patient B): severe dysfunction of salivary glands
- hematologic toxicity (laboratory tests) ([5]; patient B, 3 cycles of 6.4 MBq): no relevant hematologic toxicity
- change in thrombocyte or white blood cell count [2]: no significant change
- dysfunction of salivary glands [2]: Several patients reported dysfunction of salivary glands
- tolerability of the treatment [2]: well tolerated
- tumor markers (PSA, alkaline phosphatase) ([3]; patient A, FIG. 13B): Decline of tumor markers to none measurable or reference range
- PSA level [3, 8]: less than 0.1 ng/ml
- imaging response [3, 8]: complete imaging response
- previously PSMA-positive lesions on PSMA PET/CT ([3]; patient A, two months after 3 cycles of 9-10 MBq (100 kBq/kg) at bimonthly intervals): visually disappeared
- PSA level ([3]; patient A, two months after 3 cycles of 9-10 MBq, dropped from more than 3,000 ng/ml): 0.26 ng/mL
- restaging based on PSMA PET/CT ([3]; patient B, after 2 cycles of 6.4 MBq (100 kBq/kg) at bimonthly intervals, after failed Lu-177-PSMA-617): partial response
- restaging based on PSMA PET/CT ([3]; patient B, after 3 cycles of 6.4 MBq (100 kBq/kg) at bimonthly intervals): complete remission
- PSA level ([3]; patient B, after 3 cycles of 6.4 MBq, below the measurable level): < 0.1 ng/mL
- restaging on 68-Ga-PSMA-11 PET/CT ([3]; patient B, after second and third cycles, FIG. 14C, 14D): impressive response
- patients in PSA response [4]: 15/28
- patients in PSA response (percentage) [4]: 54%
- patients with decrease in PSA >25% [4, 9]: 17 patients
- patients with decrease in PSA >50% [4, 9]: 12 patients
- patients presenting a decrease in PSA ([4]; eight weeks after the first treatment cycle, 20 patients, 100 kBq/kg body weight, 3 times in two month intervals): 19/20
- patients presenting a decrease in PSA [4, 10]: 15/20
- patients with decrease in PSA >50% [4, 10]: 14 patients
- patients presenting a decrease in PSA [4, 11]: 15/20
- patients with decrease in PSA >50% [4, 11]: 12 patients

Source: US10980901B2, “Treatment of PMSA expressing cancers” (THE EUROPEAN ATOMIC ENERGY COMMUNITY (EURATOM), REPRESENTED …, priority 2016, dated 2021)
